Where “and” joins values, the source holds several entries; their conditions need not be identical. Identical values can stand only once.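 Following 48 hours of exposure in 96-well plates, responses at five concentrations were used to interpolate endpoints linearly. At the GI50, growth is halved. TGI: total growth inhibition.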
What was measured:
Assay in all cases: NCI-60 cell line screen, 48 h
SF-268 CNS = system: SF-268 CNS
OVCAR-8 ovarian = system: OVCAR-8 ovarian
SK-MEL-28 melanoma = system: SK-MEL-28 melanoma
NCI-H23 lung = system: NCI-H23 lung
PC-3 prostate = system: PC-3 prostate
LOX IMVI melanoma = system: LOX IMVI melanoma
K-562 leukemia = system: K-562 leukemia
SN12C renal = system: SN12C renal
DU-145 prostate = system: DU-145 prostate
SR leukemia = system: SR leukemia
OVCAR-5 ovarian = system: OVCAR-5 ovarian
CCRF-CEM leukemia = system: CCRF-CEM leukemia
UACC-257 melanoma = system: UACC-257 melanoma
NCI-H522 lung = system: NCI-H522 lung
IGROV1 ovarian = system: IGROV1 ovarian
SF-295 CNS = system: SF-295 CNS
OVCAR-4 ovarian = system: OVCAR-4 ovarian
UO-31 renal = system: UO-31 renal
SF-539 CNS = system: SF-539 CNS
A549 NSCLC = system: A549 NSCLC
HT29 colon = system: HT29 colon
ACHN renal = system: ACHN renal
MCF7 breast = system: MCF7 breast
KM12 colon = system: KM12 colon
RPMI-8226 leukemia = system: RPMI-8226 leukemia
HCT-15 colon = system: HCT-15 colon
RXF 393 renal = system: RXF 393 renal
HOP-62 NSCLC = system: HOP-62 NSCLC
HCT-116 colon = system: HCT-116 colon
MDA-MB-231 breast = system: MDA-MB-231 breast
COLO 205 colon = system: COLO 205 colon
M14 melanoma = system: M14 melanoma
SW-620 colon = system: SW-620 colon
EKVX NSCLC = system: EKVX NSCLC
BT-549 breast = system: BT-549 breast
MOLT-4 leukemia = system: MOLT-4 leukemia
SK-OV-3 ovarian = system: SK-OV-3 ovarian
CAKI-1 renal = system: CAKI-1 renal
HOP-92 NSCLC = system: HOP-92 NSCLC
SK-MEL-5 melanoma = system: SK-MEL-5 melanoma
UACC-62 melanoma = system: UACC-62 melanoma
HL-60(TB) leukemia = system: HL-60(TB) leukemia
SNB-75 CNS = system: SNB-75 CNS
MDA-MB-435 = system: MDA-MB-435
MALME-3M melanoma = system: MALME-3M melanoma
NCI-H226 lung = system: NCI-H226 lung
786-0 renal = system: 786-0 renal
NCI/ADR-RES ovarian = system: NCI/ADR-RES ovarian
SNB-19 CNS = system: SNB-19 CNS
TK-10 renal = system: TK-10 renal
T-47D breast = system: T-47D breast
NCI-H460 lung = system: NCI-H460 lung
HCC-2998 colon = system: HCC-2998 colon
HS 578T breast = system: HS 578T breast
SK-MEL-2 melanoma = system: SK-MEL-2 melanoma
OVCAR-3 ovarian = system: OVCAR-3 ovarian
U251 CNS = system: U251 CNS
A498 renal = system: A498 renal

## C[C@@H]1COC(Nc2ccc3ncnc(Nc4ccc(OCc5nccs5)c(Cl)c4)c3c2)=N1
SF-268 CNS
  GI50: 6.27 µM and 5.59 µM
  TGI: > 10 µM and 27.7 µM
OVCAR-8 ovarian
  GI50: 2970 nM and 2650 nM
  TGI: > 10 µM and 16.8 µM
SK-MEL-28 melanoma
  GI50: 4.46 µM and 5.45 µM
  TGI: > 10 µM and 18.9 µM
NCI-H23 lung
  GI50: 8.41 µM and 8.45 µM
  TGI: > 10 µM and 37 µM
PC-3 prostate
  GI50: 3.37 µM and 2.98 µM
  TGI: > 10 µM and 13.2 µM
LOX IMVI melanoma
  GI50: 3.73 µM and 4.31 µM
  TGI: > 10 µM and 17 µM
K-562 leukemia
  GI50: 4.05 µM and 4.08 µM
  TGI: > 10 µM and 33.2 µM
SN12C renal
  GI50: 6.15 µM and 4.86 µM
  TGI: > 10 µM and 26 µM
DU-145 prostate
  GI50: 3.19 µM and 3.26 µM
  TGI: > 10 µM and 19.3 µM
SR leukemia
  GI50: 6.79 µM and 3.97 µM
  TGI: > 10 µM and 21.9 µM
OVCAR-5 ovarian
  GI50: > 10 µM and 11.9 µM
  TGI: > 10 µM and 33.3 µM
CCRF-CEM leukemia
  GI50: 3.55 µM and 3.46 µM
  TGI: > 80.9 µM
UACC-257 melanoma
  GI50: > 10 µM and 5.59 µM
  TGI: > 10 µM and 25.6 µM
NCI-H522 lung
  GI50: 237 nM and 490 nM
  TGI: > 10 µM and 4.65 µM
IGROV1 ovarian
  GI50: 1090 nM and 544 nM
  TGI: > 10 µM and 8.03 µM
SF-295 CNS
  GI50: 4.9 µM and 4.54 µM
  TGI: > 10 µM and 18.6 µM
OVCAR-4 ovarian
  GI50: 5.72 µM and 3.79 µM
  TGI: > 10 µM and 17.3 µM
UO-31 renal
  GI50: 821 nM and 1290 nM
  TGI: > 10 µM and 13.5 µM
SF-539 CNS
  GI50: > 10 µM and 11.9 µM
  TGI: > 10 µM and 29.1 µM
A549 NSCLC
  GI50: > 10 µM and 5.3 µM
  TGI: > 10 µM and 32.4 µM
HT29 colon
  GI50: 5.04 µM and 4.33 µM
  TGI: > 10 µM and 17.8 µM
ACHN renal
  GI50: 446 nM and 432 nM
  TGI: > 10 µM and 16.6 µM
MCF7 breast
  GI50: 4.97 µM and 5.73 µM
  TGI: > 10 µM and 24 µM
KM12 colon
  GI50: 4.38 µM and 4.14 µM
  TGI: > 10 µM and 33.8 µM
RPMI-8226 leukemia
  GI50: 3290 nM and 2560 nM
  TGI: > 10 µM and 11.1 µM
HCT-15 colon
  GI50: 4.07 µM and 5.32 µM
  TGI: > 10 µM and 25.6 µM
RXF 393 renal
  GI50: > 10 µM and 6.81 µM
  TGI: > 10 µM and 20.7 µM
HOP-62 NSCLC
  GI50: 6.8 µM and 7.18 µM
  TGI: > 10 µM and 20.7 µM
HCT-116 colon
  GI50: 3.94 µM and 4.75 µM
  TGI: > 10 µM and 19 µM
MDA-MB-231 breast
  GI50: 6.04 µM and 8.22 µM
  TGI: > 10 µM and 27.2 µM
COLO 205 colon
  GI50: 3.79 µM and 4.86 µM
  TGI: > 10 µM and 17.1 µM
M14 melanoma
  GI50: 3.16 µM and 4.12 µM
  TGI: > 10 µM and 16.9 µM
SW-620 colon
  GI50: > 10 µM and 14.6 µM
  TGI: > 10 µM and 59.7 µM
EKVX NSCLC
  GI50: 252 nM
  TGI: > 10 µM
BT-549 breast
  GI50: 3.65 µM and 3.28 µM
  TGI: > 10 µM and 12.4 µM
MOLT-4 leukemia
  GI50: 3.38 µM and 2.87 µM
  TGI: > 10 µM and 8.72 µM
SK-OV-3 ovarian
  GI50: 167 nM and 178 nM
  TGI: > 10 µM and 14.4 µM
CAKI-1 renal
  GI50: 2240 nM and 685 nM
  TGI: > 10 µM and 15.1 µM
HOP-92 NSCLC
  GI50: 633 nM and 782 nM
  TGI: 8.43 µM and 5.68 µM
SK-MEL-5 melanoma
  GI50: 2210 nM and 2980 nM
  TGI: 6.42 µM and 10.6 µM
UACC-62 melanoma
  GI50: 6.14 µM and 3.39 µM
  TGI: > 10 µM and 14.9 µM
HL-60(TB) leukemia
  GI50: 3.7 µM and 4.2 µM
  TGI: > 100 µM
SNB-75 CNS
  GI50: 8.88 µM and 6.83 µM
  TGI: > 10 µM and 21.4 µM
MDA-MB-435
  GI50: 6.2 µM and 6.24 µM
  TGI: > 10 µM and 23.1 µM
MALME-3M melanoma
  GI50: > 10 µM and 4.49 µM
  TGI: > 10 µM and 18.5 µM
NCI-H226 lung
  GI50: 4.02 µM and 4.04 µM
  TGI: > 10 µM and 18.2 µM
786-0 renal
  GI50: 8.31 µM and 7.15 µM
  TGI: > 10 µM and 27.9 µM
NCI/ADR-RES ovarian
  GI50: 2600 nM and 2640 nM
  TGI: > 10 µM and 12 µM
SNB-19 CNS
  GI50: > 10 µM and 12.4 µM
  TGI: > 10 µM and 32.4 µM
TK-10 renal
  GI50: 235 nM and 259 nM
  TGI: > 10 µM and 14.8 µM
T-47D breast
  GI50: 286 nM and 1030 nM
  TGI: > 10 µM and 12.5 µM
NCI-H460 lung
  GI50: 8.17 µM and 8.76 µM
  TGI: > 10 µM and 26.5 µM
HCC-2998 colon
  GI50: > 10 µM and 11.9 µM
  TGI: > 10 µM and 39.6 µM
HS 578T breast
  GI50: 5.23 µM and 5.24 µM
  TGI: > 10 µM and 48.9 µM
SK-MEL-2 melanoma
  GI50: 4.43 µM and 3.47 µM
  TGI: > 10 µM and 11.1 µM
OVCAR-3 ovarian
  GI50: 2070 nM and 2670 nM
  TGI: > 10 µM and 14.2 µM
U251 CNS
  GI50: 9.24 µM and 8.55 µM
  TGI: > 10 µM and 26.6 µM
A498 renal
  GI50: 3020 nM and 342 nM
  TGI: > 10 µM and 6.25 µM

Source: PubChem BioAssay (NCI)
